For ten compounds, IC50 results are on record in PubChem BioAssay AID434934 (The Scripps Research Institute Molecular Screening Center, 2010).

Values joined by “and” are separate entries in the source; they are usually repeats but may differ in a detail not shown here. Identical values can stand only once. Active and inactive are the calls of the source.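 The calls were made as follows: active = IC50 at or below 10 µM; inactive = IC50 above 10 µM.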

This assay relates to NIH 3T3 viability, CellTiter-Glo ATP luminescence. In words: cytotoxicity in NIH 3T3 fibroblasts, late-stage follow-up, cytotoxicity control for TPT1 inhibitor project, cell-based, luminescence, dose response (AID 434934).
As usually defined, the IC50 is the point on the concentration scale where inhibition reaches its midpoint. Turning to `COc1ccc(OC)c(N2C(=O)/C(=C/c3ccco3)C(=O)NC2=S)c1`, the IC50 was 73.9 µM (inactive).
The result for `Cc1ccc(N2C(=O)NC(=O)/C(=C\c3ccc([N+](=O)[O-])o3)C2=O)cc1` reads 23.2 µM (inactive).
In the case of `O=c1oc2c(O)c(O)cc3c(=O)oc4c(O)c(O)cc1c4c23` it was > 26.5 µM (inactive); in that of `OC(Cn1cncn1)(Cn1cncn1)c1ccc(F)cc1F`, > 26.5 µM (inactive).
In the case of `NS(=O)(=O)c1cc(C(=O)NC2CCSc3ccccc32)ccc1Cl` (stereo not given) it was > 79.4 µM (inactive); in that of `CC1=C(C#N)C(=O)N(C2CCS(=O)(=O)C2)C(=O)/C1=C\c1ccco1` (stereo not given), 20.4 µM (inactive).
For the compound `Cc1cc(C)n(Cc2ccc(C(=O)NN=Cc3ccc(-c4ccc([N+](=O)[O-])cc4)o3)o2)n1`, the IC50 was > 79.4 µM (inactive).
As to `NC(=O)c1cc[n+](CC2=C(C(=O)O)N3C(=O)[C@@H](NC(=O)C(c4ccccc4)S(=O)(=O)O)[C@H]3SC2)cc1` (stereo not given in full), the IC50 was > 79.4 µM (inactive).
The result for `Cc1[nH]n(-c2ccc(S(=O)(=O)O)cc2)c(=O)c1N[N-]c1ccc(C2=CC(=O)/C(=N\[N-]c3ccc4c(S(=O)(=O)O)cc(S(=O)(=O)O)c(N)c4c3O)C=C2)cc1O.[Cu+].[Cu+]` reads 1.82 µM.
For `Cc1ccccc1N1C(=O)/C(=C/c2ccco2)C(=O)NC1=S`, the IC50 was 46.1 µM (inactive) and 34.3 µM (inactive).
